{"source": "patent US12643871B2", "about": "“Aryl formamide compound containing chiral sulfur oxide or salt thereof, preparation method, herbicidal composition and use thereof” (Qingdao Kingagroot Chemical Compound Co., Ltd., priority 2019, dated 2026)", "key": {"Abutilon theophrasti": {"test_system": "Abutilon theophrasti", "assay": "Weeding effect in post-emergence stage", "assay_type": "in vivo", "conditions": "250 g/ha; 2 leaf stage; 15 days after application; fresh weight control rate", "in_short": "(§1)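 Post-emergence spray, 2-leaf stage; doses 500–15 g/ha; acetone + Tween 80 + methyl oleate EC (1.5 L/ha) as synergist. Greenhouse 15 d. Readout: fresh weight control rate graded levels 0–5 (5 = above 85%, 0 = below 5%); triplicate means.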"}, "Amaranthus retroflexus": {"test_system": "Amaranthus retroflexus", "assay": "Weeding effect in post-emergence stage", "assay_type": "in vivo", "conditions": "250 g/ha; 2 leaf stage; 15 days after application; fresh weight control rate", "in_short": "as §1"}, "Digitaria sanguinalis": {"test_system": "Digitaria sanguinalis", "assay": "Weeding effect in post-emergence stage", "assay_type": "in vivo", "conditions": "250 g/ha; 2 leaf stage; 15 days after application; fresh weight control rate", "in_short": "as §1"}, "Echinochloa crusgali [1]": {"test_system": "Echinochloa crusgali", "assay": "Weeding effect in post-emergence stage", "assay_type": "in vivo", "conditions": "250 g/ha; 2 leaf stage; 15 days after application; fresh weight control rate", "in_short": "as §1"}, "Setaria viridis": {"test_system": "Setaria viridis", "assay": "Weeding effect in post-emergence stage", "assay_type": "in vivo", "conditions": "250 g/ha; 2 leaf stage; 15 days after application; fresh weight control rate", "in_short": "as §1"}, "[2]": {"test_system": "key weeds such as Digitaria sanguinalis, Leptochloa chinensis", "assay": "Comparison experiment (post-emergence, Tables 4-7), herbicidal activity on weeds not listed separately", "assay_type": "in vivo", "conditions": "dose of 125, 60, 30, 15 g/ha", "in_short": "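Weeds sown in soil-filled pots, covered with 0.5-2 cm soil and grown in greenhouse; sprayed at 2-leaf stage (2 weeks after sowing) with compound in acetone/Tween 80 plus 1.5 liter/ha methyl oleate concentrate. Doses 500–15 g/ha; fresh weight control rated after 15 days, mean of three repeats.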"}, "rice and other crops": {"test_system": "rice and other crops", "assay": "Comparison experiment (post-emergence, Tables 4-7), crop safety", "assay_type": "in vivo", "conditions": "dose of 125, 60, 30, 15 g/ha", "in_short": "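Compounds are applied post-emergence by spray tower to plants at the 2 leaf stage, at rates from 15 to 500 g/ha with a methyl oleate synergist. Control is expressed on fresh weight, counted after 15 days in the greenhouse and averaged across three repetitions.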"}, "Echinochloa crusgali [3]": {"test_system": "Echinochloa crusgali", "assay": "Weed control effect evaluation in rice field", "assay_type": "in vivo", "conditions": "60 g/ha; rice field pot, 14 days after treatment; ALS-inhibitor resistant weed from Heilongjiang", "source_text": "(§2) The activity level criteria for harmful plant damage (i.e., growth control rate) are as follows: • Level 5: growth control rate is above 85%; • Level 4: growth control rate is greater than or equal to 60% and less than 85%; • Level 3: growth control rate is greater than or equal to 40% and less than 60%; • Level 2: growth control rate is greater than or equal to 20% and less than 40%; • Level 1: growth control rate is greater than or equal to 5% and less than 20%; • Level 0: growth control rate is less than 5%.\n(§3) Rice field soil was loaded into a 1/1,000,000 ha pot. The seeds of Echinochloa crusgali, Scirpus juncoides, Bidens tripartita, Sagittaria trifolia, Monochoria vaginalis and Leptochloa chinensis were sowed and gently covered with soil, then left to stand still in greenhouse in the state of 0.5-1 cm of water storage. The tuber of Sagittaria trifolia was planted in the next day or 2 days later. It was kept at 3-4 cm of water storage thereafter. The weeds were treated by dripping the WP or SC water diluents prepared according to the common preparation method of the compounds of the present invention with pipette homogeneously to achieve specified effective amount when Echinochloa crusgali, Scirpus juncoides, Bidens tripartita, Monochoria vaginalis and Leptochloa chinensis reached 0.5 leaf stage and Sagittaria trifolia reached the time point of primary leaf stage.\n(§4) The fertility condition of Echinochloa crusgali, Scirpus juncoides, Bidens tripartita, Leptochloa chinensis, Sagittaria trifolia and Monochoria vaginalis 14 days after the treatment of the compound of the invention and the fertility condition of rice 21 days after the treatment of the compound of the invention respectively with the naked eye. Evaluate the weed control effect with 0-5 activity standard level. Many compounds show excellent activity and selectivity."}, "Leptochloa chinensis": {"test_system": "Leptochloa chinensis", "assay": "Weed control effect evaluation in rice field", "assay_type": "in vivo", "conditions": "60 g/ha; rice field pot, 14 days after treatment", "source_text": "as §2, §3, §4"}, "Monochoria vaginalis": {"test_system": "Monochoria vaginalis", "assay": "Weed control effect evaluation in rice field", "assay_type": "in vivo", "conditions": "60 g/ha; rice field pot, 14 days after treatment; ALS-inhibitor resistant weed from Heilongjiang", "source_text": "as §2, §3, §4"}, "Sagittaria trifolia": {"test_system": "Sagittaria trifolia", "assay": "Weed control effect evaluation in rice field", "assay_type": "in vivo", "conditions": "60 g/ha; rice field pot, 14 days after treatment; ALS-inhibitor resistant weed from Heilongjiang", "source_text": "as §2, §3, §4"}, "Rice": {"test_system": "Rice", "assay": "Transplanted rice safety evaluation", "assay_type": "in vivo, rice (japonica rice/Indica rice)", "conditions": "60 g/ha; transplanted 3 leaf stage rice, 21 days after treatment", "source_text": "as §2\nIn addition, the rice field soil that loaded into the 1/1,000,000 ha pot was leveled to keep water storage at 3-4 cm depth. The 3 leaf stage rice (japonica rice/Indica rice) was transplanted at 3 cm of transplanting depth the next day. The compound of the present invention was treated by the same way after 5 days of transplantation.\nas §4"}}, "data": [{"smiles": "CCCC[S@@+]([O-])c1c(C(F)(F)F)ccc(C(=O)Nc2nnc(C)o2)c1F", "note": "[Compound 4]", "values": [{"measurement": "weeding effect in post-emergence stage, activity level (growth control rate), Abutilon theophrasti", "setting": "Abutilon theophrasti", "value": "5 (Level 5: growth control rate is above 85%)"}, {"measurement": "weeding effect in post-emergence stage, activity level (growth control rate), Amaranthus retroflexus", "setting": "Amaranthus retroflexus", "value": "5 (Level 5: growth control rate is above 85%)"}, {"measurement": "weeding effect in post-emergence stage, activity level (growth control rate), Digitaria sanguinalis", "setting": "Digitaria sanguinalis", "value": "5 (Level 5: growth control rate is above 85%)"}, {"measurement": "weeding effect in post-emergence stage, activity level (growth control rate), Echinochloa crusgali", "setting": "Echinochloa crusgali [1]", "value": "5 (Level 5: growth control rate is above 85%)"}, {"measurement": "weeding effect in post-emergence stage, activity level (growth control rate), Setaria viridis", "setting": "Setaria viridis", "value": "5 (Level 5: growth control rate is above 85%)"}, {"measurement": "activity to key weeds such as Digitaria sanguinalis, Leptochloa chinensis compared with the corresponding racemate or S configuration", "setting": "[2]", "value": "better activity"}, {"measurement": "safety to rice and other crops compared with the corresponding racemate or S configuration", "setting": "rice and other crops", "value": "higher safety"}, {"measurement": "Herbicidal effects of compounds, Echinochloa crusgali, 0-5 activity standard level", "setting": "Echinochloa crusgali [3]", "value": "5 (Level 5: growth control rate is above 85%)"}, {"measurement": "Herbicidal effects of compounds, Leptochloa chinensis, 0-5 activity standard level", "setting": "Leptochloa chinensis", "value": "5 (Level 5: growth control rate is above 85%)"}, {"measurement": "Herbicidal effects of compounds, Monochoria vaginalis, 0-5 activity standard level", "setting": "Monochoria vaginalis", "value": "5 (Level 5: growth control rate is above 85%)"}, {"measurement": "Herbicidal effects of compounds, Sagittaria trifolia, 0-5 activity standard level", "setting": "Sagittaria trifolia", "value": "5 (Level 5: growth control rate is above 85%)"}, {"measurement": "Herbicidal effects of compounds, Rice, 0-5 activity standard level", "setting": "Rice", "value": "0 (Level 0: growth control rate is less than 5%)"}]}, {"smiles": "Cc1nnc(NC(=O)c2ccc(C(F)(F)F)c([S@+]([O-])CCCF)c2F)o1", "note": "[Compound 26]", "values": [{"measurement": "weeding effect in post-emergence stage, activity level (growth control rate), Abutilon theophrasti", "setting": "Abutilon theophrasti", "value": "5 (Level 5: growth control rate is above 85%)"}, {"measurement": "weeding effect in post-emergence stage, activity level (growth control rate), Amaranthus retroflexus", "setting": "Amaranthus retroflexus", "value": "5 (Level 5: growth control rate is above 85%)"}, {"measurement": "weeding effect in post-emergence stage, activity level (growth control rate), Digitaria sanguinalis", "setting": "Digitaria sanguinalis", "value": "5 (Level 5: growth control rate is above 85%)"}, {"measurement": "weeding effect in post-emergence stage, activity level (growth control rate), Echinochloa crusgali", "setting": "Echinochloa crusgali [1]", "value": "5 (Level 5: growth control rate is above 85%)"}, {"measurement": "weeding effect in post-emergence stage, activity level (growth control rate), Setaria viridis", "setting": "Setaria viridis", "value": "5 (Level 5: growth control rate is above 85%)"}, {"measurement": "activity to key weeds such as Digitaria sanguinalis, Leptochloa chinensis compared with the corresponding racemate or S configuration", "setting": "[2]", "value": "better activity"}, {"measurement": "safety to rice and other crops compared with the corresponding racemate or S configuration", "setting": "rice and other crops", "value": "higher safety"}, {"measurement": "Herbicidal effects of compounds, Echinochloa crusgali, 0-5 activity standard level", "setting": "Echinochloa crusgali [3]", "value": "5 (Level 5: growth control rate is above 85%)"}, {"measurement": "Herbicidal effects of compounds, Leptochloa chinensis, 0-5 activity standard level", "setting": "Leptochloa chinensis", "value": "5 (Level 5: growth control rate is above 85%)"}, {"measurement": "Herbicidal effects of compounds, Monochoria vaginalis, 0-5 activity standard level", "setting": "Monochoria vaginalis", "value": "5 (Level 5: growth control rate is above 85%)"}, {"measurement": "Herbicidal effects of compounds, Sagittaria trifolia, 0-5 activity standard level", "setting": "Sagittaria trifolia", "value": "5 (Level 5: growth control rate is above 85%)"}, {"measurement": "Herbicidal effects of compounds, Rice, 0-5 activity standard level", "setting": "Rice", "value": "0 (Level 0: growth control rate is less than 5%)"}]}, {"smiles": "Cc1nnc(NC(=O)c2ccc(C(F)(F)F)c([S@+]([O-])C3COC3)c2F)o1", "note": "[Compound 79]", "values": [{"measurement": "weeding effect in post-emergence stage, activity level (growth control rate), Abutilon theophrasti", "setting": "Abutilon theophrasti", "value": "5 (Level 5: growth control rate is above 85%)"}, {"measurement": "weeding effect in post-emergence stage, activity level (growth control rate), Amaranthus retroflexus", "setting": "Amaranthus retroflexus", "value": "5 (Level 5: growth control rate is above 85%)"}, {"measurement": "weeding effect in post-emergence stage, activity level (growth control rate), Digitaria sanguinalis", "setting": "Digitaria sanguinalis", "value": "5 (Level 5: growth control rate is above 85%)"}, {"measurement": "weeding effect in post-emergence stage, activity level (growth control rate), Echinochloa crusgali", "setting": "Echinochloa crusgali [1]", "value": "5 (Level 5: growth control rate is above 85%)"}, {"measurement": "weeding effect in post-emergence stage, activity level (growth control rate), Setaria viridis", "setting": "Setaria viridis", "value": "5 (Level 5: growth control rate is above 85%)"}, {"measurement": "Herbicidal effects of compounds, Echinochloa crusgali, 0-5 activity standard level", "setting": "Echinochloa crusgali [3]", "value": "5 (Level 5: growth control rate is above 85%)"}, {"measurement": "Herbicidal effects of compounds, Leptochloa chinensis, 0-5 activity standard level", "setting": "Leptochloa chinensis", "value": "5 (Level 5: growth control rate is above 85%)"}, {"measurement": "Herbicidal effects of compounds, Monochoria vaginalis, 0-5 activity standard level", "setting": "Monochoria vaginalis", "value": "5 (Level 5: growth control rate is above 85%)"}, {"measurement": "Herbicidal effects of compounds, Sagittaria trifolia, 0-5 activity standard level", "setting": "Sagittaria trifolia", "value": "5 (Level 5: growth control rate is above 85%)"}, {"measurement": "Herbicidal effects of compounds, Rice, 0-5 activity standard level", "setting": "Rice", "value": "0 (Level 0: growth control rate is less than 5%)"}]}]}
